Reference: article PMC8867174, “S-Nitrosation of Arabidopsis thaliana Protein Tyrosine Phosphatase 1 Prevents Its Irreversible Oxidation by Hydrogen Peroxide” (Frontiers in Plant Science, 2022)

Tests used:
[1] = target: T1, His-AtPTP1 (Arabidopsis thaliana Protein Tyrosine Phosphatase 1) (Arabidopsis thaliana, UniProt O82656); test: pNPP hydrolysis after overnight pre-treatment, […] nm; assay type: biochemical; conditions: covalent (NO donor, S-nitrosation); 250 uM to 1 mM SNAP overnight 25 C, removed by gel filtration; assay 1 mM pNPP, pH 6.3, 25 C
T1 construct: gene PTP1
T1 sequence (O82656 1-340): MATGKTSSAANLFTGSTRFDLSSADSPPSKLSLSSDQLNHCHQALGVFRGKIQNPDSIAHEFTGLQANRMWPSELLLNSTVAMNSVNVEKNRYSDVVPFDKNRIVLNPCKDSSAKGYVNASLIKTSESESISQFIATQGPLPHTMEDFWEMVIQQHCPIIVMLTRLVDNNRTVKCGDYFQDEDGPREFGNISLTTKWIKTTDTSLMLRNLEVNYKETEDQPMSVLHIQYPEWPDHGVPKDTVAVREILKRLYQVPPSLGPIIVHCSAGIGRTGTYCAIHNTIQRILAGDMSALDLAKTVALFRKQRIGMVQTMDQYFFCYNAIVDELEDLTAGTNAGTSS

[2] = target: T1, His-AtPTP1 (Arabidopsis thaliana Protein Tyrosine Phosphatase 1); test: pNPP hydrolysis after overnight pre-treatment, […] nm; biotin switch LC-MS/MS; assay type: biochemical; conditions: covalent (S-nitrosation of catalytic C265, reversible by DTT); 100 or 500 uM GSNO overnight 25 C, removed by gel filtration; assay 1 mM pNPP, pH 6.3, 25 C, no DTT

Row | SMILES | relative activity [1] | relative activity [2]
1 | CC(=O)NC(C(=O)O)C(C)(C)SN=O (centres unmarked) [S-nitroso-N-acetylpenicillamine] | Treatment of His-AtPTP1 with SNAP also led to a significant decrease in its activity | –
2 | N[C@@H](CCC(=O)N[C@@H](CSN=O)C(=O)NCC(=O)O)C(=O)O [S-nitrosoglutathione] | – | GSNO inhibited the enzymatic activity of His-AtPTP1
